Experimental data: patent US20260325685A1, “Radiopharmaceutical Compositions Targeting Carbonic Anhydrase IX and Uses Thereof” (RayzeBio, Inc., priority 2023, published 2026)
Read-outs that look alike come from different tables or passages of the source.

Key:
[1] = target: T1, human CA-IX (Homo sapiens, UniProt Q16790); assay: Surface Plasmon Resonance (SPR) binding kinetics to recombinant human CA-IX (Biacore 8K, single-cycle kinetics, 1:1 binding model)
T1 construct: purchased Acro CA9-H82E3
How it was run: (§1)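 Recombinant human CA-IX or CA-XII captured on streptavidin chips (1200-1800 RU) in PBS-P+, pH 7.4. Single-cycle kinetics over 9 analyte concentrations (100-0.39 nM) with 1% DMSO, 120 s association, 1200 s dissociation, 25° C. Reference- and DMSO-corrected curves fit to 1:1 model for on/off rates.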

[2] = target: T2, human CA-XII (Homo sapiens, UniProt O43570); assay: Surface Plasmon Resonance (SPR) binding kinetics to recombinant human CA-XII (Biacore 8K, single-cycle kinetics, 1:1 binding model)
T2 construct: purchased Creative BioMart CA12-261H
T2 sequence (O43570 25-354): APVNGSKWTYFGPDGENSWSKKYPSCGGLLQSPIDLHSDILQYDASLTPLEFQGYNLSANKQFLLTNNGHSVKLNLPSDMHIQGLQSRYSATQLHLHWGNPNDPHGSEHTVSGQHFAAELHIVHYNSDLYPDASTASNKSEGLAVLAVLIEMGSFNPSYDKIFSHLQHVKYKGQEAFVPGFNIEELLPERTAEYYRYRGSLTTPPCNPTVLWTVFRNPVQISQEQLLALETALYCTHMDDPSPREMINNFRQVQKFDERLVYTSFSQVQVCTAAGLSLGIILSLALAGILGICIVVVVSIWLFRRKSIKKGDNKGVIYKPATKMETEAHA
How it was run: as §1

[3] = Chelated Metal: Lu-175; SPR, 25° C., pH 7.4; read-out: CAIX KD
[4] = Chelated Metal: Lu-175, 25° C., pH 7.4, read-out: CAXII KD
[5] = read-out: CAIX KD; Chelated Metal: Lu-175; SPR, 25° C., pH 7.4
[6] = read-out: CAXII KD, Chelated Metal: Lu-175, 25° C., pH 7.4

Compound	Kd [1, 3]	Kd [2, 4]	further results
CC(CCC(=O)N[C@@H](CCC(=O)N1CCN(C(=O)CN2CCN(CC(=O)O)CCN(CC(=O)O)CCN(CC(=O)O)CC2)C[C@@H]1C(=O)NCCn1cc(C23CC(C(=O)Nc4nnc(S(N)(=O)=O)s4)(C2)C3)nn1)C(=O)O)(c1ccc(O)cc1)c1ccc(O)cc1.[Lu+3] [Compound 107.11]	< 1 nM	> 10 nM	–
CC(CCC(=O)N[C@@H](CC(=O)N[C@@H](CC(=O)N[C@@H](CCCCn1cc(C23CCC(C(=O)Nc4nnc(S(N)(=O)=O)s4)(CC2)C3)nn1)C(=O)NCC1(C(=O)O)CCN(C(=O)CN2CCN(CC(=O)O)CCN(CC(=O)O)CCN(CC(=O)O)CC2)CC1)C(=O)O)C(=O)O)(c1ccc(O)cc1)c1ccc(O)cc1.[Lu+3] [Compound 100.18]	< 1 nM	< 1 nM	–
CC(CCCC(=O)N1CCC(C(N)=O)(C(=O)NCC(=O)N2CCN(C(=O)CC[C@H](C(=O)O)N3CCN(CC(=O)O)CCN(CC(=O)O)CCN(CC(=O)O)CC3)C[C@@H]2C(=O)NCCn2cc(C34CC(C(=O)Nc5nnc(S(N)(=O)=O)s5)(C3)C4)nn2)CC1)(c1ccc(O)cc1)c1ccc(O)cc1.[Lu+3] [Compound 127.2]	< 1 nM	> 10 nM	–
CC(CCCC(=O)N1CCC(C(N)=O)(C(=O)NCC(=O)N2CCN(C(=O)CN3CCN(CC(=O)O)CCN(CC(=O)O)CCN(CC(=O)O)CC3)C[C@H]2C(=O)NCCn2cc(COc3ccc4nc(S(N)(=O)=O)sc4c3)nn2)CC1)(c1ccc(O)cc1)c1ccc(O)cc1.[Lu+3] [Compound 107.49]	< 1 nM	> 10 nM	–
CC(CCC(=O)N[C@@H](CC(=O)N[C@@H](CC(=O)N[C@@H](CCCCn1cc(C23CCC(C(=O)Nc4nnc(S(N)(=O)=O)s4)(CC2)C3)nn1)C(=O)NCC1(C(=O)O)CN(C(=O)CN2CCN(CC(=O)O)CCN(CC(=O)O)CCN(CC(=O)O)CC2)C1)C(=O)O)C(=O)O)(c1ccc(O)cc1)c1ccc(O)cc1.[Lu+3] [Compound 100.19]	< 1 nM	< 1 nM	–
CC(CCC(=O)N[C@@H](CC(=O)N[C@@H](CCC(=O)N1CCN(C(=O)CN2CCN(CC(=O)O)CCN(CC(=O)O)CCN(CC(=O)O)CC2)C[C@H]1C(=O)NCCn1cc(C23CC(C(=O)Nc4nnc(S(N)(=O)=O)s4)(C2)C3)nn1)C(=O)O)C(=O)O)(c1ccc(O)cc1)c1ccc(O)cc1.[Lu+3] [Compound 107.39]	< 1 nM	> 10 nM	–
CC(CCCC(=O)N1CCOC[C@H]1C(=O)N[C@@H](CC(=O)N1CCN(C(=O)CN2CCN(CC(=O)O)CCN(CC(=O)O)CCN(CC(=O)O)CC2)C[C@@H]1C(=O)NCCn1cc(C23CC(C(=O)Nc4nnc(S(N)(=O)=O)s4)(C2)C3)nn1)C(=O)O)(c1ccc(O)cc1)c1ccc(O)cc1.[Lu+3] [Compound 108.2]	< 1 nM	> 10 nM	–
CC(CCCC(=O)N1CCC(C(N)=O)(C(=O)NCC(=O)N2CCN(C(=O)CCC(C(=O)O)N3CCN(CC(=O)O)CCN(CC(=O)O)CC3)C[C@@H]2C(=O)NCCn2cc(C34CC(C(=O)Nc5nnc(S(N)(=O)=O)s5)(C3)C4)nn2)CC1)(c1ccc(O)cc1)c1ccc(O)cc1.[Cu+2] (stereo partly shown) [Compound 127.3]	–	–	Kd ([1]; Chelated Metal: Cu (cold); SPR, 25° C., pH 7.4; read-out: CAIX KD): < 1 nM; Kd ([2]; Chelated Metal: Cu (cold), 25° C., pH 7.4, read-out: CAXII KD): > 10 nM
CC(CCC(=O)N[C@@H](CC(=O)N[C@@H](CC(=O)N[C@@H](CCCCn1cc(C23CCC(C(=O)Nc4nnc(S(N)(=O)=O)s4)(CC2)C3)nn1)C(=O)N1CCC(NC(=O)CN2CCN(CC(=O)O)CCN(CC(=O)O)CCN(CC(=O)O)CC2)CC1)C(=O)O)C(=O)O)(c1ccc(O)cc1)c1ccc(O)cc1.[Lu+3] [Compound 100.12]	< 1 nM	< 1 nM	–
CC(CCC(=O)N[C@@H](CC(=O)N[C@@H](CC(=O)N1CCN(C(=O)CN2CCN(CC(=O)O)CCN(CC(=O)O)CCN(CC(=O)O)CC2)C[C@H]1C(=O)NCCn1nnc(C23CC(C(=O)Nc4nnc(S(N)(=O)=O)s4)(C2)C3)c1C(=O)O)C(=O)O)C(=O)O)(c1ccc(O)cc1)c1ccc(O)cc1.[Lu+3] [Compound 107.60]	< 1 nM	2.5 to 10 nM	–
CC(CCC(=O)N[C@@H](CC(=O)N[C@@H](CCC(=O)NC1(C(=O)NCCOCCOCCNC(=O)CN2CCN(CC(=O)O)CCN(CC(=O)O)CCN(CC(=O)O)CC2)CCN(C(=O)Cn2cc(CCCC(=O)Nc3nnc(S(N)(=O)=O)s3)nn2)CC1)C(=O)O)C(=O)O)(c1ccc(O)cc1)c1ccc(O)cc1.[Lu+3] [Compound 103.2]	1 to 2.5 nM	2.5 to 10 nM	–
NS(=O)(=O)c1nnc(NC(=O)C23CC(c4cn(CCCC[C@@H](C(=O)NCCOCCOCCNC(=O)CN5CCN(CC(=O)O)CCN(CC(=O)O)CCN(CC(=O)O)CC5)n5cc(C[C@H](NC(=O)C[C@H](NC(=O)c6n[nH]c7ccccc67)C(=O)O)C(=O)O)nn5)nn4)(C2)C3)s1.[Lu+3] [Compound 101.1]	< 1 nM	2.5 to 10 nM	–
CC(CCCC(=O)N1CCC(C(=O)O)(C(=O)NCC(=O)N[C@@H](CCCCn2cc(C34CCC(C(=O)Nc5nnc(S(N)(=O)=O)s5)(CC3)CC4)nn2)C(=O)NCCOCCOCCNC(=O)CN2CCN(CC(=O)O)CCN(CC(=O)O)CCN(CC(=O)O)CC2)CC1)(c1ccc(O)cc1)c1ccc(O)cc1.[Lu+3] [Compound 102.5]	< 1 nM	2.5 to 10 nM	–
CC(CCC(=O)N[C@@H](CC(=O)N[C@@H](CC(=O)N1CCN(C(=O)CN2CCN(CC(=O)O)CCN(CC(=O)O)CCN(CC(=O)O)CC2)C[C@H]1C(=O)NCCn1nnc(C(=O)O)c1C12CC(C(=O)Nc3nnc(S(N)(=O)=O)s3)(C1)C2)C(=O)O)C(=O)O)(c1ccc(O)cc1)c1ccc(O)cc1.[Lu+3] [Compound 107.61]	1 to 2.5 nM	> 10 nM	–
CC(CCC(=O)N[C@@H](CC(=O)N[C@@H](CC(=O)N1CCN(C(=O)CN2CCN(CC(=O)O)CCN(CC(=O)O)CCN(CC(=O)O)CC2)CC1CCCCn1cc(CCCC(=O)Nc2nnc(S(N)(=O)=O)s2)nn1)C(=O)O)C(=O)O)(c1ccc(O)cc1)c1ccc(O)cc1.[Lu+3] (stereo partly shown) [Compound 104]	–	–	Kd [1, 5]: 1 to 2.5 nM; Kd [2, 6]: 2.5 to 10 nM
CC(C)(C)c1ccc(C(=O)N[C@@H](CC(=O)N[C@@H](CC(=O)N2CCN(C(=O)CN3CCN(CC(=O)O)CCN(CC(=O)O)CCN(CC(=O)O)CC3)C[C@H]2C(=O)NCCn2cc(C34CC(C(=O)Nc5nnc(S(N)(=O)=O)s5)(C3)C4)nn2)C(=O)O)C(=O)O)cc1.[Lu+3] [Compound 109.26]	1 to 2.5 nM	2.5 to 10 nM	–
NS(=O)(=O)c1nnc(NC(=O)C23CC(c4cn(CCNC(=O)[C@@H]5CN(C(=O)CN6CCN(CC(=O)O)CCN(CC(=O)O)CCN(CC(=O)O)CC6)CCN5C(=O)C[C@H](Nc5ncc(C(=O)NCc6n[nH]c7ccccc67)cn5)C(=O)O)nn4)(C2)C3)s1.[Lu+3] [Compound 111.10]	2.5 to 10 nM	> 10 nM	–
NS(=O)(=O)c1nnc(NC(=O)C23CC(c4cn(CCNC(=O)[C@@H]5CN(C(=O)CN6CCN(CC(=O)O)CCN(CC(=O)O)CCN(CC(=O)O)CC6)CCN5C(=O)CNC(=O)C5(C(=O)O)CCN(C(=O)Cc6ccc(C7CC7)cc6)CC5)nn4)(C2)C3)s1.[Lu+3] [Compound 112.12]	1 to 2.5 nM	> 10 nM	–
CC(CCC(=O)N1CCOC[C@H]1C(=O)N[C@@H](CC(=O)N1CCN(C(=O)CN2CCN(CC(=O)O)CCN(CC(=O)O)CCN(CC(=O)O)CC2)C[C@@H]1Cn1cc(C23CC(C(=O)Nc4nnc(S(N)(=O)=O)s4)(C2)C3)nn1)C(=O)O)(c1ccc(O)cc1)c1ccc(O)cc1.[Lu+3] [Compound 114]	–	–	Kd [1, 5]: 1 to 2.5 nM; Kd [2, 6]: > 10 nM
CC(CCC(=O)N[C@@H](CC(=O)N[C@@H](CC(=O)NC1(CCCCn2cc(CCCC(=O)Nc3nnc(S(N)(=O)=O)s3)nn2)CCN(C(=O)CN2CCN(CC(=O)O)CCN(CC(=O)O)CCN(CC(=O)O)CC2)CC1)C(=O)O)C(=O)O)(c1ccc(O)cc1)c1ccc(O)cc1.[Lu+3] [Compound 116]	–	–	Kd [1, 5]: 1 to 2.5 nM; Kd [2, 6]: 2.5 to 10 nM
NS(=O)(=O)c1nnc(NC(=O)C23CC(c4cn(C[C@H]5CN(C(=O)CN6CCN(CC(=O)O)CCN(CC(=O)O)CCN(CC(=O)O)CC6)CCN5c5nccc(NCCc6n[nH]c7ccccc67)n5)nn4)(C2)C3)s1.[Lu+3] [Compound 115]	–	–	Kd [1, 5]: 2.5 to 10 nM; Kd [2, 6]: > 10 nM
CC(CCC(=O)N[C@@H](CC(=O)N[C@@H](CC(=O)N1CCN(C(=O)CCOCCOCCOCCOCCOCCOCCOCCOCCNC(=O)CN2CCN(CC(=O)O)CCN(CC(=O)O)CCN(CC(=O)O)CC2)C[C@H]1C(=O)NCCn1cc(C23CC(C(=O)Nc4nnc(S(N)(=O)=O)s4)(C2)C3)nn1)C(=O)O)C(=O)O)(c1ccc(O)cc1)c1ccc(O)cc1.[Lu+3] [Compound 129]	–	–	Kd [1, 5]: 1 to 2.5 nM; Kd [2, 6]: > 10 nM
CC(CCC(=O)N[C@@H](CC(=O)N[C@@H](CC(=O)N1CCN(C(=O)CN2CCN(CC(=O)O)CCN(CC(=O)O)CCN(CC(=O)O)CC2)C[C@H]1C(=O)NCCn1cc(-c2ccc(C(=O)Nc3nnc(S(N)(=O)=O)s3)c(Cl)c2)nn1)C(=O)O)C(=O)O)(c1ccc(O)cc1)c1ccc(O)cc1.[Lu+3] [Compound 107.30]	< 1 nM	1 to 2.5 nM	–
NS(=O)(=O)c1nnc(NC(=O)C23CC(c4cn(CCNC(=O)[C@@H]5CN(C(=O)CN6CCN(CC(=O)O)CCN(CC(=O)O)CCN(CC(=O)O)CC6)CCN5C(=O)C[C@H](NC(=O)C[C@H](NC(=O)c5ccc(C6CC6)cn5)C(=O)O)C(=O)O)nn4)(C2)C3)s1.[Lu+3] [Compound 109.19]	< 1 nM	1 to 2.5 nM	–
NS(=O)(=O)c1nnc(NC(=O)C23CC(c4cn(CCNC(=O)[C@@H]5CN(C(=O)CN6CCN(CC(=O)O)CCN(CC(=O)O)CCN(CC(=O)O)CC6)CCN5C(=O)C[C@H](NC(=O)C[C@H](NC(=O)CC5CC6(CCC6)C5)C(=O)O)C(=O)O)nn4)(C2)C3)s1.[Lu+3] [Compound 109.18]	< 1 nM	1 to 2.5 nM	–
CC(CCCC(=O)N1CCOC[C@H]1C(=O)N[C@@H](CC(=O)NC1(C(=O)NCCn2cc(C34CC(C(=O)Nc5nnc(S(N)(=O)=O)s5)(C3)C4)nn2)CCN(C(=O)CN2CCN(CC(=O)O)CCN(CC(=O)O)CCN(CC(=O)O)CC2)CC1)C(=O)O)(c1ccc(O)cc1)c1ccc(O)cc1.[Lu+3] [Compound 117.3]	< 1 nM	> 10 nM	–
